Legend:
LC3 [1] = assay: immunoblotting of LC3 in S. typhimurium-infected J774A.1 cells treated with a lysosomal V-ATPase inhibitor; type: cell-based; details: 100 nM, 4 hours
Description: (§1) First, J774A.1 macrophages (Korean Cell Line Bank) were cultured in RPMI (Rosewell Park Memorial Institue) supplemented with 10% FBS and 100 units/mL penicillin/streptomycin, and HeLa cells were cultured in Dulbecco's Modified Eagle's Medium (DMEM; Gibco, 10566016) supplemented with 10% FBS and 100 units/mL penicillin/streptomycin. All cell lines were tested negative for mycoplasma using the MycoAlert detection kit (Lonza, LT07-118), and all culture plates and cell lines were maintained in a humidified incubator at 37° C. and 5% CO2.
Macrophage J774A.1 and HeLa cells were infected with Salmonella typhimurium, a Gram-negative bacterium, and the expression of LC3 was monitored through immunoblotting. Mouse monoclonal anti-[…] (Abcam, ab56416, 1: 100,000) was used for immunoblotting, rabbit polyclonal anti-LC3 (Sigma, L7543, 1:40,000) was used for immunoblotting, and anti-rabbit IgG-HRP (Cell Signaling, 7074, 1:10,000) and anti-mouse IgG-HRP (Cell Signaling, 7076, 1:1000) were used as secondary antibodies.
The J774A.1 cells of Experimental Example 1-1 were treated with bafilomycin A1 (100 nM), an inhibitor of lysosomal V-ATPase, for 4 hours, and immunoblotting was performed in the same manner as in Experimental Example 1-1. However, there was no difference in the degree of inhibition of LC3-I and LC-II expression even when treated with lysosomal V-ATPase inhibitor (FIG. 1E).

LC3 [2] = assay: immunoblotting of LC3 in J774A.1 and HeLa cells treated with LPS; type: cell-based; details: 100 ng/mL, 6 hours
Description: as §1
[…] Mouse monoclonal anti-β62 (Abcam, ab56416, 1: 100,000) was used for immunoblotting, rabbit polyclonal anti-LC3 (Sigma, L7543, 1:40,000) was used for immunoblotting, and anti-rabbit IgG-HRP (Cell Signaling, 7074, 1:10,000) and anti-mouse IgG-HRP (Cell Signaling, 7076, 1:1000) were used as secondary antibodies.
In addition, in order to rule out the possibility that J774A.1 and HeLa cells lack the ability to induce autophagy in response to pathogen invasion, the J774A.1 and HeLa cells of Experimental Example 1-1 were treated with lipopolysaccharide (LPS) (100 ng/mL), a component of the outer membrane of Gram-negative bacteria, as a pathogen-associated molecular pattern (PAMP) for 6 hours, and immunoblotting was performed in the same manner as in Experimental Example 1-1.

CO/C1=C\C(C)=C\[C@@H](C)[C@@H](O)[C@@H](C)C/C(C)=C/C=C/[C@H](OC)[C@@H]([C@@H](C)[C@@H](O)[C@H](C)[C@@]2(O)C[C@@H](O)[C@H](C)[C@@H](C(C)C)O2)OC1=O [bafilomycin A1]
degree of inhibition of LC3-I and LC-II expression (LC3 [1]): no difference

lipopolysaccharide [LPS]
lipidation of LC3 (LC3-II) (LC3 [2]): strongly induced
synthesis of LC3 (LC3-I) (LC3 [2]): strongly induced
